# From patent publication US8697858B2 (priority 2009, dated 2014)
# Values joined by “and” are separate entries in the source; they are usually repeats but may differ in a detail not shown here. Equal values may be shown once. Read-outs that look alike come from different tables or passages of the source. In the oligonucleotide strings, read from the 5' end, every base follows the letter of its sugar. An asterisk marks phosphorothioate; unmarked linkages are phosphodiester. Other units and linkages are bracketed, terminal groups are in braces. A string of capitals states the bases alone. [PMO-N] = phosphorodiamidate morpholino subunit (N: the base); [pip] = piperazino phosphorodiamidate linkage (PMOplus)
# How the values were obtained:
# Assay type in all cases: in vivo, ferrets
# [1] = system: oseltamivir-resistant H1N1 (SOIV) pandemic influenza virus
# [2] = system: oseltamivir-resistant H1N1 (SOIV) pandemic influenza virus; remark: listed apart in the source
# [3] = system: oseltamivir-resistant H1N1 (SOIV) pandemic influenza virus; conditions: for Viral Titer / Viral Titer AUC: n = 8
# [4] = system: oseltamivir-resistant H1N1 (SOIV) pandemic influenza virus; remark: listed apart in the source
# [5] = Post minus Pre, Tamiflu 5 mg/kg p.o. every 12 hours
# [6] = Post, Tamiflu 5 mg/kg p.o. every 12 hours
# [7] = Pre, Tamiflu 5 mg/kg p.o. every 12 hours
compound,measurement,setting,value
"CCOC(=O)C1=C[C@@H](OC(CC)CC)[C@H](NC(C)=O)[C@@H](N)C1 [Tamiflu, Oseltamivir, reference compound]","lung congestion, alveolitis, infiltrating cells","[1]; AVI-7100 with or without oseltamivir, oseltamivir-only",significant congestion in the lung with marked alveolitis
same,Body Weight Change Difference,[2]; [5],-6.1 g/day
same,Max Body Temperatures Difference,[2]; [5],+1.3 ° F.
same,Body Weight Change Post,[2]; [6],8.5 ± 3.2 g/day
same,Max Body Temperatures Post,[2]; [6],105.7 ° F.
same,Body Weight Change Pre,[2]; [7],15.1 ± 0.4 g/day
same,Max Body Temperatures Pre,[2]; [7],104.4 ° F.
same,Clinical Scores,[2]; Tamiflu 5 mg/kg p.o. every 12 hours,1.17 ± 0.25
same,Viral Titer,"[3]; nasal wash, Day 1, Oseltamivir 5 mg/kg p.o. every 12 hours",2.42 ± 0.58
same,Viral Titer,"[3]; nasal wash, Day 3, Oseltamivir 5 mg/kg p.o. every 12 hours",0.77 ± 0.73
same,Viral Titer,"[3]; nasal wash, Day 5, Oseltamivir 5 mg/kg p.o. every 12 hours",0.67 ± 0.67
same,Viral Titer,"[3]; nasal wash, Day 8, Oseltamivir 5 mg/kg p.o. every 12 hours",0.92 ± 0.37
same,Viral Titer AUC,"[3]; nasal wash, Oseltamivir 5 mg/kg p.o. every 12 hours",7.015
same,"Macrophage Cellularity in Upper Respiratory Tract, Day 3 Peak","[4]; nasal wash, Day 3, Tamiflu 5 mg/kg p.o. every 12 hours",7.91 ± 7.28
same,"Macrophage Cellularity in Upper Respiratory Tract, Average ± Std Deviation","[4]; nasal wash, Tamiflu 5 mg/kg p.o. every 12 hours",2.98 ± 2.71
"AVI-7100: PMOplus CGGT+TAGAAGAC+TCATC+TTT, three (piperazino) phosphorodiamidate linkages ([PMO-C][PMO-G][PMO-G][PMO-T][pip][PMO-T][PMO-A][PMO-G][PMO-A][PMO-A][PMO-G][PMO-A][PMO-C][pip][PMO-T][PMO-C][PMO-A][PMO-T][PMO-C][pip][PMO-T][PMO-T][PMO-T])","lung congestion, alveolitis, infiltrating cells",[1]; in vivo,"no congestion in the lung, only mild alveolitis, and few infiltrating cells"
same,Clinical Scores,[2]; in vivo,1.00 ± 0.00 and 1.11 ± 0.21
same,symptoms of influenza virus infection,[2]; in vivo,significantly reduces symptoms of influenza virus infection
same,Body Weight Change Difference,"[2]; in vivo, ip, 10 mg/kg",-5.7 g/day
same,Body Weight Change Post,"[2]; in vivo, ip, 10 mg/kg",10.9 ± 1.5 g/day
same,Body Weight Change Pre,"[2]; in vivo, ip, 10 mg/kg",16.6 ± 0.8 g/day
same,Max Body Temperatures Difference,"[2]; in vivo, ip, 10 mg/kg",+0.7 ° F.
same,Max Body Temperatures Post,"[2]; in vivo, ip, 10 mg/kg",106.1 ° F.
same,Max Body Temperatures Pre,"[2]; in vivo, ip, 10 mg/kg",105.4 ° F.
same,Body Weight Change Difference,"[2]; in vivo, ip, 30 mg/kg",+0.8 g/day
same,Body Weight Change Post,"[2]; in vivo, ip, 30 mg/kg",12.6 ± 2.0 g/day
same,Body Weight Change Pre,"[2]; in vivo, ip, 30 mg/kg",11.8 ± 0.8 g/day
same,Max Body Temperatures Difference,"[2]; in vivo, ip, 30 mg/kg",−0.5 ° F.
same,Max Body Temperatures Post,"[2]; in vivo, ip, 30 mg/kg",104.2 ° F.
same,Max Body Temperatures Pre,"[2]; in vivo, ip, 30 mg/kg",104.7 ° F.
same,"viral titer in nasal wash, benefit in words",[3]; in vivo,Significant benefit
same,Viral Titer AUC,[3]; 10 mg/kg,5.515
same,Viral Titer AUC,[3]; 30 mg/kg,5.675
same,"Macrophage Cellularity in Upper Respiratory Tract, Average ± Std Deviation","[4]; in vivo, ip, 10 mg/kg",4.34 ± 3.82
same,"Macrophage Cellularity in Upper Respiratory Tract, Day 3 Peak","[4]; in vivo, ip, 10 mg/kg",3.88 ± 4.73
same,"Macrophage Cellularity in Upper Respiratory Tract, Average ± Std Deviation","[4]; in vivo, ip, 30 mg/kg",2.78 ± 2.97
same,"Macrophage Cellularity in Upper Respiratory Tract, Day 3 Peak","[4]; in vivo, ip, 30 mg/kg",1.59 ± 1.28
